Consider four compounds from publication PMC5481569, “A Bacteroidetes locus dedicated to fungal 1,6-β-glucan degradation: Unique substrate conformation drives specificity of the key endo-1,6-β-glucanase” (The Journal of Biological Chemistry, 2017).

One test deals with T1, BT3313 (Bacteroides thetaiotaomicron, UniProt Q8A2J2).
T1 construct: gene BT_3313; signal peptide (lipoprotein) removed; N-terminal hexahistidine tag; pET28 derivative, E. coli
T1 sequence (Q8A2J2 20-667): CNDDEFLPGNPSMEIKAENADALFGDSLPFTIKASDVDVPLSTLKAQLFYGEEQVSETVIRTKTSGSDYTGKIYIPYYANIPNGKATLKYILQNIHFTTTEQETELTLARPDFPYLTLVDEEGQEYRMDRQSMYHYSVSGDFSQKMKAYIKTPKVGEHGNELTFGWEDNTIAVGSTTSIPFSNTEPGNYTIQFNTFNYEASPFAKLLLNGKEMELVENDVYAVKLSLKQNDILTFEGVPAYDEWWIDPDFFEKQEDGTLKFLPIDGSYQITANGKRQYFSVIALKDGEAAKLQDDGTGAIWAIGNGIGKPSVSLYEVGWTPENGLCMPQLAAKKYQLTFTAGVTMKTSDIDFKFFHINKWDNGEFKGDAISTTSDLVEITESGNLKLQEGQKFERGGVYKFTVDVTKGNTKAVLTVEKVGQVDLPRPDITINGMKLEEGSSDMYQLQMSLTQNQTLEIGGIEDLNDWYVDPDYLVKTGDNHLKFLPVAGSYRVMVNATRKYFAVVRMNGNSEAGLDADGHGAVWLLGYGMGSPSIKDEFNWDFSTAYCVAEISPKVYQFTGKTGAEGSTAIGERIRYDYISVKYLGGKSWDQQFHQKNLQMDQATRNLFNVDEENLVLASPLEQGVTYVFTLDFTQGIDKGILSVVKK
Nature of the test: isothermal titration calorimetry. Type of test: binding. Conditions: 50 mM Na-Hepes, pH 7.5, 25 °C. The source says: isothermal titration calorimetry on BT3313

Another test has as its target T2, BT3311 (Bacteroides thetaiotaomicron, UniProt Q8A2J4).
T2 construct: gene BT_3311; signal peptide (lipoprotein) removed; N-terminal hexahistidine tag; pET28 derivative, E. coli
T2 sequence (Q8A2J4 22-506): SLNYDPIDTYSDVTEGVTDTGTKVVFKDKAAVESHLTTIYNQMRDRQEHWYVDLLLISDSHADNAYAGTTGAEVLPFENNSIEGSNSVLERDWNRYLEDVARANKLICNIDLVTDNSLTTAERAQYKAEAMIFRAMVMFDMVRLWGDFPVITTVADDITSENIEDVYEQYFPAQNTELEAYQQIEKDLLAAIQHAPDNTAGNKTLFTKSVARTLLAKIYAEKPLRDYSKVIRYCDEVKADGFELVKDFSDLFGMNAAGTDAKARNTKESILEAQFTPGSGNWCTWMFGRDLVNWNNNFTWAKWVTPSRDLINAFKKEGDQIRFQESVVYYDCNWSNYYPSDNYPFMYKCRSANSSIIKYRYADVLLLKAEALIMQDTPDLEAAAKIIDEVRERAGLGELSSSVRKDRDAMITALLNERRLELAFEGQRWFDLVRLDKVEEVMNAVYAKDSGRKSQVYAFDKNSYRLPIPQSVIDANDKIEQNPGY
In words: isothermal titration calorimetry. Type of test: binding. Conditions: 50 mM Na-Hepes, pH 7.5, 25 °C. An excerpt:
isothermal titration calorimetry on BT3311
On the technique in general: Isothermal titration calorimetry measures the heat released or taken up as one component is titrated into another.

A further test deals with T3, BT3312 (Bacteroides thetaiotaomicron, UniProt Q8A2J3).
T3 construct: gene BT_3312; signal peptide (lipoprotein) removed; N-terminal hexahistidine tag; pET28 derivative, E. coli Tuner; residues 82-427 form the TIM barrel domain
T3 sequence (Q8A2J3 22-496): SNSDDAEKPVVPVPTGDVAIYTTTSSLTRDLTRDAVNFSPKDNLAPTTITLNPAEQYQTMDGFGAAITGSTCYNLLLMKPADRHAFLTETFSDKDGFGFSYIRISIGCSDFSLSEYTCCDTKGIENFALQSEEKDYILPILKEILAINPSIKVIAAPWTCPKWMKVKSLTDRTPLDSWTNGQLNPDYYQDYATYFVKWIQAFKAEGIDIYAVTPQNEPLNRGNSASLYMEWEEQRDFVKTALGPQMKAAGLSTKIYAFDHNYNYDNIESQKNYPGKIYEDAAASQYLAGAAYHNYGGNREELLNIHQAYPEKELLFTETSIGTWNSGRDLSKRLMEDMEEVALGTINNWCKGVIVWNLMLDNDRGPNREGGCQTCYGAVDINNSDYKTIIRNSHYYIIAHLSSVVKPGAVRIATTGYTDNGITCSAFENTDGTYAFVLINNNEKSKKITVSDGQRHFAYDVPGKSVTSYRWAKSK
Nature of the test: glucose release from […]-β-glucotriose (D-glucose detection kit); also crystal structure, […] Å. Type of test: biochemical.

Regarding `OC[C@H]1O[C@@H](OC[C@H]2O[C@@H](OC[C@H]3O[C@@H](OC[C@H]4O[C@@H](OC[C@H]5O[C@@H](OC[C@H]6O[C@@H](OC[C@H]7OC(O)[C@H](O)[C@@H](O)[C@@H]7O)[C@H](O)[C@@H](O)[C@@H]6O)[C@H](O)[C@@H](O)[C@@H]5O)[C@H](O)[C@@H](O)[C@@H]4O)[C@H](O)[C@@H](O)[C@@H]3O)[C@H](O)[C@@H](O)[C@@H]2O)[C@H](O)[C@@H](O)[C@@H]1O` (stereo partly drawn) [1,6-β-Glucoheptaose], the Ka is on record as 1.5 × 10^4 ± 0.2 at BT3313 and 2.1 × 10^4 ± 0.1 at BT3311.
In the same order, the values of `OC[C@H]1O[C@@H](OC[C@H]2O[C@@H](OC[C@H]3O[C@@H](OC[C@H]4O[C@@H](OC[C@H]5O[C@@H](OC[C@H]6OC(O)[C@H](O)[C@@H](O)[C@@H]6O)[C@H](O)[C@@H](O)[C@@H]5O)[C@H](O)[C@@H](O)[C@@H]4O)[C@H](O)[C@@H](O)[C@@H]3O)[C@H](O)[C@@H](O)[C@@H]2O)[C@H](O)[C@@H](O)[C@@H]1O` (stereo partly drawn) [1,6-β-Glucohexaose] are 8.0 × 10^3 ± 0.7 and 1.6 × 10^4 ± 0.1.
In the same order, the values of `OC[C@H]1O[C@@H](OC[C@H]2O[C@@H](OC[C@H]3O[C@@H](OC[C@H]4O[C@@H](OC[C@H]5OC(O)[C@H](O)[C@@H](O)[C@@H]5O)[C@H](O)[C@@H](O)[C@@H]4O)[C@H](O)[C@@H](O)[C@@H]3O)[C@H](O)[C@@H](O)[C@@H]2O)[C@H](O)[C@@H](O)[C@@H]1O` (stereo partly drawn) [1,6-β-Glucopentaose] are 3.6 × 10^3 ± 0.2 and 8.3 × 10^3 ± 0.3.
Consider `OC[C@H]1O[C@@H](OC[C@H]2NC[C@H](O)[C@@H](O)[C@@H]2O)[C@H](O)[C@@H](O)[C@@H]1O` [compound 5, β-D-Glucopyranosyl-1,6-deoxynojirimycin], for which the Ki – broadly, the dissociation constant of the complex between target and ligand, obtained from inhibition or displacement – on BT3312 is approximately 1 mM.
